# Measured values as given in patent US7087658B2, “Water-soluble coating agents bearing initiator groups” (SurModics, Inc., priority 1999, dated 2006).
# Key:
# platelets = assay: Platelet attachment and activation from platelet rich plasma (SEM); format: cell-based, human; settings: coated polyethylene (PE); for Platelet activation, spreading and aggregation: SEM
# Procedure: The surface-modified materials were incubated with platelet rich plasma (PRP), observed with a scanning electron microscope and photographed to determine the influence of surface chemistry on platelet attachment and activation.
# Blood was collected fresh from human volunteers into 3.8% (v/v) sodium citrate solution using 9:1 ratio of blood to anticoagulant. The blood was centrifuged at 1200 rpm for 15 minutes to separate PRP from blood. The PRP was collected and kept at room temperature until used (less than 1 hour).
# The test samples (½-inch circles) were placed in a 6-well plate, 1 sample per well. The PRP solution was added onto the top of the samples until the entire surface of the sample was covered, and the samples were incubated one hour at room temperature with no agitation. To quantify the platelet solution, a sample of the PRP was taken and diluted 1:100 with 1% (v/v) Oxalate Ammonium. A capillary tube was used to transfer a small amount of solution to a hemacytometer, and the sample was incubated in a covered petri dish for 30 minutes at room temperature for the platelets to settle.
# The platelets were counted under a phase contrast microscope and determined to be approximately 50–100×10^9 platelets/L. After incubation, the PRP was removed carefully by aspiration and 3 mls of Tyrode's buffer (138-mM NaCl, 2.9-mM KCl, 12-mM sodium bicarbonate, pH 7.4) gently added to each well. The plates were agitated slightly on an orbital shaker for 15 minutes; the solution was changed and the wash repeated. The wash solution was aspirated and 2.0 ml of Karnovsky's fixative (25-mls formaldehyde, 5-mls 25% glutaraldehyde, 20-mls of a solution of 23% NaH2PO4—H2O, 77% NaHPO4 anhydrous) were added to each well. The plate was wrapped with parafilm and incubated overnight at room temperature with slight agitation.
# The fixative was aspirated off and the samples were washed 3 times each with pure water, 15 minutes each. […] The platelets were counted and judged by degree of activation and morphology.
# [1] = tested on: Beta-Thromboglobulin (β-TG) released from the α-granules of platelets; assay: Beta-Thromboglobulin assay; format: cell-based, human; settings: coated polyethylene; PRP, one hour at room temperature; enzyme immunoassay
# Procedure: The surface-modified materials were incubated with PRP and the plasma was assayed for the Beta-Thromboglobulin (β-TG) released from the α-granules due to activation of the platelets. Blood was collected fresh from human volunteers into 3.8% (v/v) sodium citrate using 9:1 ratio of blood to anticoagulant. The blood was centrifuged at 1200 rpm for 15 minutes to separate PRP from blood. The PRP was collected and kept at room temperature until used (less than 1 h). The test samples (½-inch circles) were placed in a 6-well plate, 1 sample per well. The PRP solution was added onto the top of the samples until the entire surface of the sample was covered, and the samples incubated one hour at room temperature with no agitation. Control samples of plasma, for initial β-TG levels, were taken prior to incubation.
# After incubation with the samples, prostaglandin E1 (Sigma, product no. P5515) was added to each sample and the plasma was assayed with an enzyme immunoassay kit (Asserachrom American Bioproduct, product no. 0250) for the amount of β-TG released.
# [2] = tested on: intrinsic and common pathways of coagulation; assay: Partial thromboplastin time (PTT) test; format: biochemical
# Procedure: A useful test in determining the hemocompatibility of a reagent is the partial thromboplastin time (PTT) test. The PTT is a test of the intrinsic (factors VIII, IX, XI, and XII) and common (fibrinogen, prothrombin, factors V and X) pathways of coagulation. A mixture of plasma and phospholipid platelet substitute (rabbit brain cephalin) is recalcified and the time required for the appearance of fibrin strands measured.
# The PTT was tested to determine whether Compound I or Compound II have the ability to extend the control PTT. A test tube of rabbit brain cephalin (Sigma #RBC) in 0.85% NaCl and a test tube of 0.02 M CaCl2 was brought to 37° C. in a water bath. Dade Ci-trol coagulation control lyophilized plasma (Dade International, Inc., product no. 34224-10) was reconstituted in sterile deionized water. In 10×75 mm glass test tubes, 100 μl reconstituted plasma and 100 μl RBC were mixed and incubated at 37° C. in a water bath for 5 minutes. Next, 50 μl of sample (deionized water, a photocrosslinkable polyvinylpyrrolidone (available from SurModics, Inc., product no. PVO5), or Compound I or II) was added and mixed. While simultaneously starting a stop watch, 100 μl of 0.02 M CaCl2 was added to initiate the clotting cascade. After 40 seconds had passed, the test tubes were shaken lightly, observed for fibrin formation, and the number of seconds was recorded.
# All samples were tested in duplicate. The appropriate control PTT, depending upon what solvent in which the reagent was dissolved, was subtracted from the average PTT for the reagent to give the time the control PTT was extended.
# [3] = final concentration 0.7 mg/ml, solvent H2O
# [4] = final concentration 1.43 mg/ml, solvent H2O
# [5] = final concentration 0.7 mg/ml, solvent 50% IPA
# [6] = final concentration 1.29 mg/ml, solvent 50% IPA
SMILES,"Platelet activation, spreading and aggregation (platelets)",Morphology of platelets attached to modified surfaces (platelets; SEM photographs),β-TG release [1],"Average PTT [2, 3] [s]","Formed Clot [2, 3]","Time Extended Beyond Control PTT ([2]; final concentration 0.7 mg/ml, solvent H2O, DI H2O control subtracted) [s]","Average PTT [2, 4] [s]","Formed Clot [2, 4]","Time Extended Beyond Control PTT ([2]; final concentration 1.43 mg/ml, solvent H2O, DI H2O control subtracted) [s]","Average PTT [2, 5] [s]","Formed Clot [2, 5]","Time Extended Beyond Control PTT ([2]; final concentration 0.7 mg/ml, solvent 50% IPA, 50% IPA control subtracted) [s]","Average PTT [2, 6] [s]","Formed Clot [2, 6]","Time Extended Beyond Control PTT ([2]; final concentration 1.29 mg/ml, solvent 50% IPA, 50% IPA control subtracted) [s]","Extension of the 50% IPA control PTT ([2]; higher of the two final concentrations tested, 50% IPA control) [h]","Extension of PTT from water control ([2]; higher of the two final concentrations tested, water control) [h]"
"O=C(c1ccccc1)c1ccc(COc2cc(S(=O)(=O)[O-])cc(S(=O)(=O)[O-])c2OCc2ccc(C(=O)c3ccccc3)cc2)cc1.[K+].[K+] [Compound I, 4,5-bis(4-benzoylphenylmethyleneoxy) benzene-1,3-disulfonic acid disodium salt]",less activation and spreading,"Full coverage, many aggregates, little",lower levels of β-TG release than the uncoated and PVO5 controls,117,yes,64,>3600,no,>3600,,,,,,,,
"O=C(c1ccccc1)c1ccc(COc2cc(S(=O)(=O)[O-])c(OCc3ccc(C(=O)c4ccccc4)cc3)cc2S(=O)(=O)[O-])cc1.[K+].[K+] [Compound II, 2,5-bis(4-benzoylphenylmethyleneoxy) benzene-1,4-disulfonic acid dipotassium salt]","some spreading pseudopodia, but little or no aggregating",,,,,,,,,134,yes,56,3600,yes,3522,1,≥ 1
